The values below come from patent US20030031647A1, “IFN-alpha and amantadine for treating hepatitis C” (priority 1997, published 2003).

One data set relates to Hepatitis C Virus. The data set is described as follows: HCV RNA in cultured PBMC from chronic hepatitis C patients (RT-PCR, AMPLICOR HCV MONITOR assay). In kind it is cell-based, Hepatitis C virus (subtype 1b prevalent) in human PBMC. To be noted: for Number of cases with HCV RNA Negative / Number of cases with reduction in HCV RNA concentration >25% / Number of cases with reduction in HCV RNA concentration >50% / Number of cases with reduction in HCV RNA concentration >75%: IFN-α2A 0 IU/ml, PBMC, n = 15. Here is the method: Antiviral Effect of Amantadine and IFN-α2A Against Hepatitis C Virus on Peripheral Blood Mononuclear Cells (PBMC) from Chronic Hepatitis C Patients
Mononuclear cells from patients with chronic hepatitis C (serum anti-HCV and HCV RNA positive with histologically proven chronic hepatitis) were analyzed for the presence of HCV RNA, using reverse transcription and PCR techniques with universal primers from the highly conserved 5′ non-coding region of the HCV genome (Navas et al., J. Hepatol. 21, 182-186 (1994)). Typing and subtyping of HCV genomes were performed by RFLP analysis of PCR products (Navas et al., J. Clin. Microbiol. 21, 317-321(1997)). For the purpose of this study, only cases infected by a single genotype have been considered, in order to minimize the possible interference of multiple genotypes, in the subject population, HCV subtype 1b was prevalent (Pernas et al., J. Gen. Virol. 76, 415-420(1995)). Thus, HCV RNA-positive PBMC obtained from 15 patients have been analyzed in vitro for the effects of treatment. PBMC from 10 matched healthy donors have been used as controls and analyzed similarly.
(§1) PBMC were isolated from heparinized venous blood by Ficoll-Hypaque gradient sedimentation. The interphase PBMC were isolated, washed twice with phosphate-buffered saline, and suspended in RPMI. The viability of these cells was assessed by trypan blue exclusion. PBMC were cultured in duplicate at a concentration of 2×10^6 viable cells/ml in 6-well tissue culture dusters, in a humid atmosphere with 5% CO2 for 7 days. The cultures have been maintained without mitogens (medium alone) or were stimulated with single mitogens (Phytohemagglutinin (PHA) or Lipopolysaccharide (LPS) or with PHA plus LPS (10 μg/ml each)(Martin et al., Cytokine 8, 313-317 (1996)). PBMC proliferation, and the possible drug-induced cytotoxicity, were measured using non-isotopic cell-proliferation and cytotoxicity assays.
The effect of experimental treatments with amantadine alone, in combination with IFN-α2A and those of IFN-α2A alone, have been established by testing HCV RNA in cultured mononuclear cells, compared with untreated PBMC from patients (Martin et al., supra); specificity controls were as described previously by Navas et al. in J. Hepatol. 21, 182-186 (1994). Treatment of mononuclear cells form healthy donors with amantadine alone, in combination with IFN-α2A or with IFN-α2A alone, served as controls. Changes in HCV RNA concentrations were measured by the AMPLICOR™ HCV MONITOR assay (Roche Diagnostic System, Inc., Branchburg).

The next data set concerns PBMC. Nature of the data set: PBMC viability, proliferation and cytotoxicity (non-isotopic cell-proliferation and cytotoxicity assays). The class given is cell-based, human. To be noted: for PBMC proliferation: PBMC from healthy donors. Here is the method: as §1
Setting [1] is: amantadine 1-5 μM, cultured PBMC from HCV patients and healthy donors.

For the compound `NC12CC3CC(CC(C3)C1)C2` [Amantadine, tricyclo[3.3.1.1^3,7]decane-1-amine], the “PBMC cultures in which HCV RNA became negative” value with Hepatitis C Virus (2 μM amantadine, 1/15 patients) is 7%. The “PBMC cultures in which HCV RNA became negative” value in the data set on Hepatitis C Virus (5 μM amantadine, 3/15 patients) was found to be 20%. Further, in the data set on Hepatitis C Virus (Amantadine 1 μM), the “Number of cases with HCV RNA Negative” value was found to be 0, the “Number of cases with reduction in HCV RNA concentration >25%” value is reported as 3, the “Number of cases with reduction in HCV RNA concentration >50%” value is reported as 2 and the “Number of cases with reduction in HCV RNA concentration >75%” value is reported as 3. For the same compound, in the data set on Hepatitis C Virus (Amantadine 2 μM), the “Number of cases with HCV RNA Negative” value is listed as 1, the “Number of cases with reduction in HCV RNA concentration >25%” value is 5, the “Number of cases with reduction in HCV RNA concentration >50%” value came to 2 and the “Number of cases with reduction in HCV RNA concentration >75%” value is on record as 4. Further, in the data set with Hepatitis C Virus (Amantadine 5 μM), the “Number of cases with HCV RNA Negative” value is listed as 3, the “Number of cases with reduction in HCV RNA concentration >25%” value stood at 2, the “Number of cases with reduction in HCV RNA concentration >50%” value is on record as 2 and the “Number of cases with reduction in HCV RNA concentration >75%” value is reported as 3. Further, the PBMC proliferation result in the data set on PBMC (amantadine 50 μM) is on record as “slightly decreased PBMC proliferation”. For the same compound, in the data set with PBMC (amantadine 500 μM), the PBMC proliferation entry was “marked anti-proliferative effect”. In the data set with PBMC (setting [1]), the cell viability entry is listed as “did not affect the cell viability” and the response to mitogens entry is “minor effects on the response to mitogens”.
